The text below walks through data of patent publication US11890279B2, “Quinolines that modulate SERCA and their use for treating disease” (Neurodon Corporation, priority 2020, dated 2024).

The structures appear in SMILES notation.

One test has as its system N2a cells. The test is described as follows: Protection against hydrogen peroxide-induced cell death, N2a. The conditions noted are these: compound 40 μM; hydrogen peroxide 200 μM. The format is cell-based, mouse. Put shortly: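 N2a cells were pretreated 2 h with compound at 40 μM, then exposed to 200 μM H2O2 for 40 min. AlamarBlue (10% v/v) was added and fluorescence read 2 h later. Viability expressed as % RFU of control, reported as % cell rescue.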

The test system of the next test is ob/ob mice. The test is described as follows: Glucose (GTT) and insulin (ITT) tolerance tests in ob/ob mice. The format is in vivo, mouse. The conditions noted are these: vs vehicle. The procedure:
For the GTT, D-glucose dissolved in 0.9% NaCl was delivered intraperitoneally at a dose of 1 g/kg. The blood glucose level was measured 0, 15, 30, 60, 90, and 120 min after glucose administration. For the ITT, insulin was administered intraperitoneally at a dose of 1 IU/kg. The blood glucose level was measured 0, 15, 30, 60, 90, and 120 min after insulin administration. Glucose levels were measured in blood samples drawn from the tail vein using OneTouch Ultra 2 Meter (LifeScan, Inc.).

The subject of test [1] is CA1 pyramidal neurons of PS1/APP mice. Description: Ca2+ imaging in brain slices of treated PS1/APP mice. Format: in vivo, mouse. The conditions noted are these: 10 mg/kg IP, 4 weeks, caffeine 10 mM, 60 sec. From the text: Mouse Model: PS1/APP mice (PS1M146V and APPSWE) (Howlett et al., Brain Res. 2004, 1017, 130-136) were used. Age-matched NTg controls were on the same background strain (C57bl6/J9).
Brain Slice Preparation: Mice were deeply anesthetized with halothane and rapidly decapitated. The brains were extracted rapidly and 300 or 400 μm-thick transverse hippocampal slices were cut with a vibrating microtome into ice-cold oxygenated artificial cerebrospinal fluid (aCSF) with the following composition (in mM): 125 NaCl, 2.5 KCl, 1.25 KH2PO4, 1.2 MgSO4, 2 CaCl2, 10 dextrose, and 25 NaHCO3.
Ca^2+ Imaging: Ca^2+ imaging within individual neurons was performed in brain slice preparations using a custom-made video-rate multiphoton-imaging system based on an upright Olympus BX51 microscope frame. […] Emitted fluorescence light was detected by a wide-field photomultiplier (Electron Tubes) to derive a video signal that was captured and analyzed by Video Savant 5.0 software (IO Industries). […] For clarity, results are expressed as inverse ratios so that increases in [Ca^2+] correspond to increasing ratios. The % change is calculated as [(F/ΔF)−1]×100, where F is the average resting fluorescence at baseline and ΔF is the decrease of fluorescence reflecting Ca release. Differences between drug- and saline-treated groups were assessed using two-way ANOVA and Scheffe post hoc analysis for significance (p<0.05). […]

In test [2] the test system is rabbit monoamine transporter. Description: Selectivity panel of 164 targets. The following applies: 10 μM in duplicate; one of only 4 hits among 164 targets. From the text: (§1) The methods used here for each target were adapted from the scientific literature to maximize reliability and reproducibility.
In a further test the target is human adenosine A2A (Homo sapiens (Human), UniProt P29274). The test is described as follows: Selectivity panel of 164 targets. The following applies: 10 μM in duplicate; one of only 4 hits among 164 targets.
Chain of human adenosine A2A (P29274 whole entry): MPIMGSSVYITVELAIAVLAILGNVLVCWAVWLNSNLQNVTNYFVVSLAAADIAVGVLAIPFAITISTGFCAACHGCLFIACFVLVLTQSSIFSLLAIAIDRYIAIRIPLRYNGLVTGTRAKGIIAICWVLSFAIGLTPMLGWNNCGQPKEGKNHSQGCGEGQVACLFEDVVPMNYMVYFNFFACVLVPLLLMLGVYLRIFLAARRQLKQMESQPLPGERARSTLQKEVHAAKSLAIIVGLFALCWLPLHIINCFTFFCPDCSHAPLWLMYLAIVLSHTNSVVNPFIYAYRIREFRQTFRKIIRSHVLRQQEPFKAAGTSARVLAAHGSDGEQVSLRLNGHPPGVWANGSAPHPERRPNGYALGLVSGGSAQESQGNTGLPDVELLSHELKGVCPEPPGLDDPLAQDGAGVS
From the text: as §1

In test [3] the target is human nerepinephrine (NET) transporter (Homo sapiens (Human), UniProt P23975). Description: Selectivity panel of 164 targets. The following applies: 10 μM in duplicate; one of only 4 hits among 164 targets.
From the text: as §1

In test [4] the target is human serotonin (5-hydroxytryptamine) 5-HT2B (Homo sapiens (Human), UniProt P41595). The test is described as follows: Selectivity panel of 164 targets. The following applies: 10 μM in duplicate; one of only 4 hits among 164 targets. The source says:
The methods used here for each target were adapted from the scientific literature to maximize reliability and reproducibility. Reference standards were run as an integral part of each essay to ensure the validity of the results obtained.

The next test concerns APP-PS1 mice. Description: Aβ deposition, thioflavin S staining. Format: in vivo, mouse. The conditions noted are these: 10 mg/kg ip, 4 weeks, vs saline. The procedure: Mice were transcardially perfused with ice-cold PBS (3 mL) followed by 4% paraformaldehyde (5 mL). Brains were extracted and fixed overnight in 30% sucrose-cryoprotectant solution. Coronal hippocampal sections […] thick were cut on a cryostat and collected in TBS (0.1 M Tris, 0.9% saline, pH 7.4). Thioflavin S Staining: Free-floating hippocampal sections were washed with TBS (4×3 min). The sections were soaked in 0.5% thioflavin S (in 50/50 ethyl alcohol/distilled water, Sigma-Aldrich) for 10 min, followed by 2×3 min washes with 50% ethyl alcohol. Sections were washed again with TBS (2×3 min), mounted with minimal drying, and coverslipped with anti-fade mounting medium PVA-DABCO for microscopy. Confocal images of immunolabeled tissue were obtained using 4× and 10× objective lenses on the Olympus Fluoview confocal microscope. Density of amyloid plaques was quantified by averaging the percent area staining positive (thresholded above background staining, as determined by software parameters and experimenter confirmation) within the hippocampus and cortex from 3-5 sections from each experimental animal using MetaMorph Software (Molecular Devices). There were no significant differences in the intensity of background threshold values across animal strains or treatment conditions (p>0.05). The experimenter was blind to animal strain and treatment condition. […] Mice were ˜6 months of age.

Chain of human serotonin (5-hydroxytryptamine) 5-HT2B (P41595 whole entry): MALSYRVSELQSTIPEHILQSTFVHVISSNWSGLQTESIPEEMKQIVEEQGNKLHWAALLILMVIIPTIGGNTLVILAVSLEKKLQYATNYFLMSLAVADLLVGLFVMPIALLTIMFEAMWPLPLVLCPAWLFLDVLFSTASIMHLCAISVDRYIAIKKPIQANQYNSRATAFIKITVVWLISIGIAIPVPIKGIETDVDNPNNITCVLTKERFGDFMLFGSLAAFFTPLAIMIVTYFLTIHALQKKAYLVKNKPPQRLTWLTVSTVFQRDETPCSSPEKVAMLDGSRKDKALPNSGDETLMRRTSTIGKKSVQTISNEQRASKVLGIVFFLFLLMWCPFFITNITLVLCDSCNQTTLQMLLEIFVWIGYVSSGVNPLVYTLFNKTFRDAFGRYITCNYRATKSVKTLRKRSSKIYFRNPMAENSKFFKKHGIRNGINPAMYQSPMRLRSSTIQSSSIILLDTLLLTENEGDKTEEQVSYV

`Cc1ccc2cccc(NC(=O)c3ccc(OC(C)C)cc3)c2n1` [Compound A12, 4-Isopropoxy-N-(2-methylquinolin-8-yl)benzamide]: the “N2a Cells (H2O2-induced) cell rescue” value in the test on N2a cells is on record as “B (B represents a value between 10% to 50% cell rescue)”. For the same compound, in the test on ob/ob mice (day 7 post-injection), the “hyperglycemic response to i.p. glucose challenge (GTT)” value was “significantly reduced”. Moreover, the “insulin-stimulated glucose deposal (ITT)” value in the test on ob/ob mice (day 10 post-injection) is listed as “strongly enhanced”. Further, the “ER Ca^2+ signaling (RyR-Ca2+ response to caffeine)” value in test [1] is recorded as “restores ER Ca^2+ signaling”. The “response against rabbit monoamine transporter” value in test [2] is reported as “significant responses”. For the same compound, the “response against human adenosine A2A” value on human adenosine A2A is listed as “significant responses”. Moreover, the “response against human NET transporter” value in test [3] was “significant responses”. Moreover, in test [4], the “response against human 5-HT2B” value was “significant responses”. In addition, the “amyloid plaques stained with Thioflavin S” value in the test with APP-PS1 mice is “reduced”.

Regarding `Cc1ccc2cccc(NC(=O)c3ccc(N(C)C)cc3)c2n1` [Compound C18, 4-N,N-Dimethylamino-N-(2-methylquinolin-8-yl)benzamide], the “N2a Cells (H2O2-induced) cell rescue” value in the test on N2a cells was “B (B represents a value between 10% to 50% cell rescue)”.
